The results in this text go back to PMC10004634 (PLOS ONE, 2023).

Where two headings read alike, the source gives them in different places.

Holding throughout (test): biochemical
What all share (design): KINOMEscan scanMAX competition binding, DNA-tagged kinases, qPCR read-out, percent control at 300 nM
(In qPCR the cycle at which signal appears reflects the starting amount.)

The target in test [1] is T1, IKK-epsilon (Homo sapiens, UniProt Q14164).
T1 construct: gene IKBKE
T1 sequence (Q14164 1-716): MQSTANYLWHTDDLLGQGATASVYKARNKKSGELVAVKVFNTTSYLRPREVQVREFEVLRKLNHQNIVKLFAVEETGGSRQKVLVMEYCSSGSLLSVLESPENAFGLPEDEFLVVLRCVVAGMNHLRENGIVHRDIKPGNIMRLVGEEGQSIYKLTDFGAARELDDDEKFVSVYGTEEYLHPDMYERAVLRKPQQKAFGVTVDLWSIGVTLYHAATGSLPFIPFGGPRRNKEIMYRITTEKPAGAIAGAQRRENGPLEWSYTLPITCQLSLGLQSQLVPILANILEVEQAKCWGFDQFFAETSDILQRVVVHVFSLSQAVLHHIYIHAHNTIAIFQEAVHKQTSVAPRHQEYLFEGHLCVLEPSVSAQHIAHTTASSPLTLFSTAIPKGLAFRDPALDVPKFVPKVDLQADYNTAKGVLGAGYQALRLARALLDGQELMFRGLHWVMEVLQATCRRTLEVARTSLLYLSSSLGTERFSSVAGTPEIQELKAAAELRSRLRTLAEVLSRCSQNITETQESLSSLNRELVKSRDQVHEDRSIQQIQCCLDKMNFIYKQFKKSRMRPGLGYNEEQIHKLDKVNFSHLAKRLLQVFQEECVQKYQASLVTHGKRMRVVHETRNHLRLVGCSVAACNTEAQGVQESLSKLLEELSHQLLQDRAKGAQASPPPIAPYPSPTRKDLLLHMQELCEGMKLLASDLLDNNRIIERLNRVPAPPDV

Test [2] deals with STK33 (Homo sapiens, UniProt Q9BYT3).
Test [3] deals with T2, JAK1(JH2domain-pseudokinase) (Homo sapiens, UniProt P23458).
T2 construct: JH2domain-pseudokinase

Test [4] deals with T3, PRKX (Homo sapiens, UniProt P51817).
T3 sequence (P51817 1-358): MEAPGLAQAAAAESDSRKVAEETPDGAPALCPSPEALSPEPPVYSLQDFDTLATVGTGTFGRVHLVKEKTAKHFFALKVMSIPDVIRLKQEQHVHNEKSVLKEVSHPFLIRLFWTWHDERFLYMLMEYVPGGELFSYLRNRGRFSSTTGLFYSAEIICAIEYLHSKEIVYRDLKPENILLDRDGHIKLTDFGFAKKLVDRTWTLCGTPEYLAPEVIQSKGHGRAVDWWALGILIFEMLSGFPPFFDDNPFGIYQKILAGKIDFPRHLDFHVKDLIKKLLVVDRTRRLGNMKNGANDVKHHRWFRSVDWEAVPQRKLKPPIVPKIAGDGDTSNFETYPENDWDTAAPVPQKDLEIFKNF

The target in test [5] is RET(V804M) (Homo sapiens, UniProt P07949, V804M).
Test [6] has as its target T4, MLCK (Homo sapiens, UniProt Q32MK0).
T4 construct: gene MYLK3
T4 sequence (Q32MK0 1-819): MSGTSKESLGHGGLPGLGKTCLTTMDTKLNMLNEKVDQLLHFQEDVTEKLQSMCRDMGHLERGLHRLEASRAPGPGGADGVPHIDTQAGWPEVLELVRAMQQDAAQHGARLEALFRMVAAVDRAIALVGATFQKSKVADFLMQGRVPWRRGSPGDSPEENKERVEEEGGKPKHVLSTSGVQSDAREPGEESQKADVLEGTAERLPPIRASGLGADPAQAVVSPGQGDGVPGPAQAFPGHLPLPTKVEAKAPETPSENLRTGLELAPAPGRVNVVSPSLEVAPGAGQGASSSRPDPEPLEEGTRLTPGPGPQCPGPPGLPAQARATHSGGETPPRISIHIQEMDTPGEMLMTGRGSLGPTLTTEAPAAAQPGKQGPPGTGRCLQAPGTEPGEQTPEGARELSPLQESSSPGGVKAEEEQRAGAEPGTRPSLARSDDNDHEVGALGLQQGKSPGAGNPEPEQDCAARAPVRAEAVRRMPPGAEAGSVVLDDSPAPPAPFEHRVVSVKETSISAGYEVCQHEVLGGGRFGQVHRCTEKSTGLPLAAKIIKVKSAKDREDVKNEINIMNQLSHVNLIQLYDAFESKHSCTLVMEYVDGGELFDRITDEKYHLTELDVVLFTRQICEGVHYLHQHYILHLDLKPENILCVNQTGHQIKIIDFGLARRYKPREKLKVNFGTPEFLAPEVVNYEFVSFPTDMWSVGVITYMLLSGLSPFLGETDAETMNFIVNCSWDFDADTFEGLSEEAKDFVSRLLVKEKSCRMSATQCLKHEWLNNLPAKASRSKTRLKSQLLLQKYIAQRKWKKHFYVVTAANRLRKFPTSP

For test [7], the target named is DAPK2 (Homo sapiens, UniProt Q9UIK4).
Setting [8] is: read-out: Percent control / Acalabrutinib.
Where [9] appears, read: read-out: Percent control / Ibrutinib.
Where [10] appears, read: read-out: Percent control / Tirabrutinib.
Where [11] appears, read: read-out: Percent control / Zanubrutinib.

Chain of DAPK2 (Q9UIK4 whole entry): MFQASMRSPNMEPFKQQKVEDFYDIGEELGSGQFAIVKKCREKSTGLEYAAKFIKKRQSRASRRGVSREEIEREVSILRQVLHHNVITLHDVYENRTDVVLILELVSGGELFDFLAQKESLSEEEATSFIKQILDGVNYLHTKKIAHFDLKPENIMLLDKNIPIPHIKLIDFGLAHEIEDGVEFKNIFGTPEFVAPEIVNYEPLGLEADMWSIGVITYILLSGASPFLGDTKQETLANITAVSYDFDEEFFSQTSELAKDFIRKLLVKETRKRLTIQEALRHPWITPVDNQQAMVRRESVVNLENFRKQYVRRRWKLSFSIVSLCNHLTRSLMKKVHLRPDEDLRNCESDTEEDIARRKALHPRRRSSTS
T2 sequence (P23458 whole entry): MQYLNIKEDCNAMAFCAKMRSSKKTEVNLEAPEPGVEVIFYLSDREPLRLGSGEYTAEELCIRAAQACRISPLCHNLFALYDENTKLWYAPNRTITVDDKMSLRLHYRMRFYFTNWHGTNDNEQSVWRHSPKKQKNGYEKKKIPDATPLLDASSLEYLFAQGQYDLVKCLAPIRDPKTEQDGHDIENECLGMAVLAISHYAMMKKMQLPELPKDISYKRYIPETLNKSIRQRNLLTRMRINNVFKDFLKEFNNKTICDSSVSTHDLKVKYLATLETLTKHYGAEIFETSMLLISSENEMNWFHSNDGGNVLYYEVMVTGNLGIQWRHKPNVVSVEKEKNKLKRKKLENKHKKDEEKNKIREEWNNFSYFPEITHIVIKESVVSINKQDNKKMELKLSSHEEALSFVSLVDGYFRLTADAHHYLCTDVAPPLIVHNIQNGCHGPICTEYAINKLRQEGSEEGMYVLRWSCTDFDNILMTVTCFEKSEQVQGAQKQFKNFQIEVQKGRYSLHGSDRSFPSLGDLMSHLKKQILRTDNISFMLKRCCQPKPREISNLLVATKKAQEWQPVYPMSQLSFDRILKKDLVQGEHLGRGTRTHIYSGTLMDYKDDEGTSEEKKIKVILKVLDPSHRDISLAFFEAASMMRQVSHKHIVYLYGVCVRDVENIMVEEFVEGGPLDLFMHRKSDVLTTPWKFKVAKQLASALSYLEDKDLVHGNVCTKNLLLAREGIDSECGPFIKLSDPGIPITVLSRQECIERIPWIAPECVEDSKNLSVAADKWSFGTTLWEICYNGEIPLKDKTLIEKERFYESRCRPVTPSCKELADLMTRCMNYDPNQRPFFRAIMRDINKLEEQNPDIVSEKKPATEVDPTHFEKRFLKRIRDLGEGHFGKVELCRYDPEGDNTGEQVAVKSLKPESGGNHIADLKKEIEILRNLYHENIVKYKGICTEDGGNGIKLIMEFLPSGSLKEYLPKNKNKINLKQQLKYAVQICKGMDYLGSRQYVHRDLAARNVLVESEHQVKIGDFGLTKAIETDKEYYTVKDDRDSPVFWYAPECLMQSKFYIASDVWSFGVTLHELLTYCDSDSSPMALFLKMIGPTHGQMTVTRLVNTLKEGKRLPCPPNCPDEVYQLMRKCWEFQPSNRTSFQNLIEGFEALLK
Chain of STK33 (Q9BYT3 whole entry): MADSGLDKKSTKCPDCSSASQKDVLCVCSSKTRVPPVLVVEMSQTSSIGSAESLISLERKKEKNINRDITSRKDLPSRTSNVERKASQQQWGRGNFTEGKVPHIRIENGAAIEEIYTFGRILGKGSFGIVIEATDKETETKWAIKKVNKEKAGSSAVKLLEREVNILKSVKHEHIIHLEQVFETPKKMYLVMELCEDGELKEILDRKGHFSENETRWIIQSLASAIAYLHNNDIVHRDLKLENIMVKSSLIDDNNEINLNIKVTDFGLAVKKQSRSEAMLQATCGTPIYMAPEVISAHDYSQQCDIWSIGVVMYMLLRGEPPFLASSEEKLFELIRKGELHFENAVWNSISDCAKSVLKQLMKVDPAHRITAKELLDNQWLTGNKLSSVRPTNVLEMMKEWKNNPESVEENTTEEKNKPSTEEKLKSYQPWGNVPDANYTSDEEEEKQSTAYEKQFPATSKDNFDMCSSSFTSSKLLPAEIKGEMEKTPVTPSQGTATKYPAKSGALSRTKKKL
Chain of RET(V804M) (P07949 whole entry V804M): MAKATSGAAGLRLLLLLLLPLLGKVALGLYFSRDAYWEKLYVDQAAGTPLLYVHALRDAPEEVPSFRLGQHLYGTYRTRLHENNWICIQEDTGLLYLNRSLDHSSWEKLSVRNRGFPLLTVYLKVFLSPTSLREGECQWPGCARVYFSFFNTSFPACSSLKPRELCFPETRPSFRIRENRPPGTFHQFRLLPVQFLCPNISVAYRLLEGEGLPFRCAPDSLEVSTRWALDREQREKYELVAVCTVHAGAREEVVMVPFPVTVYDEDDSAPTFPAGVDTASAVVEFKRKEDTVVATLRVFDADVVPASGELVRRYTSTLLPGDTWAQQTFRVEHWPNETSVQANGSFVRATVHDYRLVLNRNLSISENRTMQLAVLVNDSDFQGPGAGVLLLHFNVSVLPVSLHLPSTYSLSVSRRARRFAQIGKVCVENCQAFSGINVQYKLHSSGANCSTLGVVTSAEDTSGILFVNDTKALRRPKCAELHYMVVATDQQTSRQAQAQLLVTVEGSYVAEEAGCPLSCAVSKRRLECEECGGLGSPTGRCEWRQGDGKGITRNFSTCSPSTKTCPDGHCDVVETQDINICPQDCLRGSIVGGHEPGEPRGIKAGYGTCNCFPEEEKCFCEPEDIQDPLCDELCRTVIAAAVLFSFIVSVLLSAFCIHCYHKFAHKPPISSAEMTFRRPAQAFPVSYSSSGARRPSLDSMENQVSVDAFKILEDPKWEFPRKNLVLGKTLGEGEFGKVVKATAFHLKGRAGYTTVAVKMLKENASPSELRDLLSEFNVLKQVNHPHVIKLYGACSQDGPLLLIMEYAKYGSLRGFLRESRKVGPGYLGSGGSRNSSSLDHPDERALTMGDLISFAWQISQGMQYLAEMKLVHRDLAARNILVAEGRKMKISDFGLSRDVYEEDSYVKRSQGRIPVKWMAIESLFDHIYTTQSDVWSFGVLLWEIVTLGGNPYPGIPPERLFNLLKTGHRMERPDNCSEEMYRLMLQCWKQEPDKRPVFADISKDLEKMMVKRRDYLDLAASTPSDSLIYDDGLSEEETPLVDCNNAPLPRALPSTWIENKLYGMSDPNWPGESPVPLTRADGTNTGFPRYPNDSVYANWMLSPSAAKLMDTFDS

`CC#CC(=O)N1CCC[C@H]1c1nc(-c2ccc(C(=O)Nc3ccccn3)cc2)c2c(N)nccn12` [Acalabrutinib]: the remaining binding at 0.3 µM in test [1] (setting [8]) stood at 76%; in test [2] (setting [8]) it was 90%; in test [3] (setting [8]), 99%; in test [4] (setting [8]), 81%; in test [5] (setting [8]), 85%; in test [6] (setting [8]), 94%.

As to `C=CC(=O)N1CCC[C@@H](n2nc(-c3ccc(Oc4ccccc4)cc3)c3c(N)ncnc32)C1` [Ibrutinib], the remaining binding at 0.3 µM turned out to be 83% in test [1] (setting [9]); 86% in test [2] (setting [9]); 80% in test [3] (setting [9]); 75% in test [4] (setting [9]); 79% in test [7] (setting [9]); 94% in test [5] (setting [9]). In addition, the remaining binding at 0.3 µM in test [6] (setting [9]) turned out to be 79%.

For `CC#CC(=O)N1CC[C@@H](n2c(=O)n(-c3ccc(Oc4ccccc4)cc3)c3c(N)ncnc32)C1` [Tirabrutinib], the remaining binding at 0.3 µM in test [1] (setting [10]) stood at 92%; in test [3] (setting [10]), 79%; in test [4] (setting [10]) it was 87%; in test [7] (setting [10]) it was 88%.

Take `C=CC(=O)N1CCC([C@@H]2CCNc3c(C(N)=O)c(-c4ccc(Oc5ccccc5)cc4)nn32)CC1` [Zanubrutinib]: the remaining binding at 0.3 µM in test [1] (setting [11]) came to 100%; in test [2] (setting [11]), 93%; in test [3] (setting [11]), 88%; in test [4] (setting [11]), 96%; in test [7] (setting [11]) it was 91%; in test [5] (setting [11]) it was 94%. In addition, in test [6] (setting [11]), the remaining binding at 0.3 µM was found to be 84%.
